The results in this text go back to PubChem BioAssay (NCI).

Some test systems named below: CAKI-1 renal; HCT-116 colon; HCT-15 colon; HS 578T breast; HT29 colon; KM12 colon; LOX IMVI melanoma; M14 melanoma; MALME-3M melanoma; MDA-MB-231 breast; OVCAR-3 ovarian; OVCAR-4 ovarian; OVCAR-8 ovarian; RXF 393 renal; SF-268 CNS; SK-MEL-2 melanoma; T-47D breast; HOP-92 NSCLC; OVCAR-5 ovarian.
What all share (assay): NCI anticancer screen, dose series, 48 h

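Exposure lasted 48 hours, with cells grown in 96-well plates and compounds tested at five concentrations. TGI: total growth inhibition.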

In the case of `N#Cc1sc2c(c1OC(=O)c1ccccc1)c(=O)n(-c1ccccc1)c(=S)n2-c1ccccc1`, the TGI is more than 100 µM in the test with CAKI-1 renal; 40.6 µM in the test on HCT-116 colon; 39.4 µM in the test with HCT-15 colon; 52.2 µM in the test with HS 578T breast; more than 100 µM in the test with HT29 colon; 43.5 µM in the test on KM12 colon. Also, the TGI with LOX IMVI melanoma is 51.7 µM; in the test on M14 melanoma, 40.6 µM; with MALME-3M melanoma it was 50 µM; in the test with MDA-MB-231 breast, 59.2 µM; in the test with OVCAR-3 ovarian it was more than 100 µM; in the test with OVCAR-4 ovarian it was 80.7 µM. Also, the TGI in the test on OVCAR-8 ovarian is more than 100 µM; in the test with RXF 393 renal, 32.7 µM; in the test with SF-268 CNS, more than 100 µM; with SK-MEL-2 melanoma, 80.3 µM; with T-47D breast, 46.9 µM.
Take `C/C(=N\Nc1ccc([N+](=O)[O-])cc1[N+](=O)[O-])c1sc(-n2nc(-c3ccccc3)cc2-c2ccccc2)nc1C`: the TGI in the test on CAKI-1 renal was more than 100 µM; in the test on HCT-116 colon, more than 100 µM; in the test on HCT-15 colon, more than 100 µM; with HOP-92 NSCLC, 77.4 µM; in the test with HS 578T breast, more than 100 µM; with HT29 colon, 33.8 µM. Besides, the TGI is more than 100 µM in the test with KM12 colon; 63.9 µM with LOX IMVI melanoma; more than 100 µM in the test with M14 melanoma; more than 100 µM in the test with MALME-3M melanoma; more than 100 µM in the test on MDA-MB-231 breast; more than 100 µM with OVCAR-3 ovarian. Moreover, the TGI with OVCAR-4 ovarian, in the test with OVCAR-5 ovarian, in the test with OVCAR-8 ovarian, in the test with SF-268 CNS and with T-47D breast was more than 100 µM in each case.
With `Nc1n[n+](CC(=O)c2ccccc2)c2sc(-c3ccccc3)nn12`, the TGI in the test with CAKI-1 renal, in the test on HCT-116 colon, with HCT-15 colon, with HS 578T breast, with HT29 colon and with KM12 colon was more than 100 µM throughout. In addition, the TGI in the test with LOX IMVI melanoma, in the test on M14 melanoma, in the test on MALME-3M melanoma, with MDA-MB-231 breast, in the test with OVCAR-3 ovarian and in the test with OVCAR-4 ovarian was more than 100 µM throughout. Also, the TGI with OVCAR-5 ovarian, with OVCAR-8 ovarian, in the test on RXF 393 renal, with SF-268 CNS, in the test on SK-MEL-2 melanoma and in the test on T-47D breast was more than 100 µM each time.
For the molecule `O=C(O)C12C3CCC(CC3)C1(C(=O)O)C1CCC2C1` (stereo unspecified), the TGI in the test with CAKI-1 renal, in the test on HCT-116 colon, in the test with HCT-15 colon, with HS 578T breast, in the test with HT29 colon and in the test with KM12 colon was more than 100 µM in each case. Also, the TGI in the test with LOX IMVI melanoma, with M14 melanoma, in the test with MALME-3M melanoma, with MDA-MB-231 breast, in the test on OVCAR-3 ovarian and in the test with OVCAR-5 ovarian was more than 100 µM in each case. Also, the TGI in the test with OVCAR-8 ovarian, in the test with RXF 393 renal, in the test on SF-268 CNS, with SK-MEL-2 melanoma and in the test on T-47D breast was more than 100 µM throughout.
For the molecule `CCc1nn(CN2CCOCC2)c(=S)n1/N=C/c1ccc(-c2ccc(Cl)cc2)o1`, the TGI with CAKI-1 renal, with HCT-116 colon, with HCT-15 colon, in the test on HOP-92 NSCLC, in the test on HS 578T breast and with HT29 colon was more than 100 µM each time. The TGI in the test on KM12 colon, with LOX IMVI melanoma, in the test with M14 melanoma, in the test with MDA-MB-231 breast, with OVCAR-3 ovarian and in the test on OVCAR-4 ovarian was more than 100 µM each time. In addition, the TGI in the test with OVCAR-5 ovarian, in the test on OVCAR-8 ovarian, in the test with RXF 393 renal, with SF-268 CNS, in the test on SK-MEL-2 melanoma and with T-47D breast was more than 100 µM throughout.
In the case of `NC(N)=NCC[C@H](NC(=O)OCCCCCn1ccc(=O)[nH]c1=O)C(=O)O`, the TGI in the test on CAKI-1 renal, in the test on HCT-116 colon, in the test with HCT-15 colon, in the test with HOP-92 NSCLC, in the test with HS 578T breast and with HT29 colon was more than 100 µM throughout. The TGI in the test with KM12 colon, in the test with LOX IMVI melanoma, with MALME-3M melanoma, in the test on MDA-MB-231 breast, in the test with OVCAR-3 ovarian and in the test on OVCAR-4 ovarian was more than 100 µM each time. The TGI in the test on OVCAR-5 ovarian, with OVCAR-8 ovarian, with RXF 393 renal, in the test with SF-268 CNS, in the test with SK-MEL-2 melanoma and in the test with T-47D breast was more than 100 µM in each case.
`CCOC(=O)C1C(c2ccc3c(c2)OCO3)c2c([nH][nH]c2=O)CC1(C)O` (stereo unspecified): the TGI in the test on CAKI-1 renal, with HCT-116 colon, in the test with HCT-15 colon, in the test on HOP-92 NSCLC, in the test on HS 578T breast and in the test with HT29 colon was more than 100 µM each time. Further, the TGI in the test with KM12 colon, with LOX IMVI melanoma, in the test with M14 melanoma, with MALME-3M melanoma, with MDA-MB-231 breast and in the test with OVCAR-3 ovarian was more than 100 µM throughout. Further, the TGI in the test with OVCAR-4 ovarian, in the test on OVCAR-5 ovarian, in the test with OVCAR-8 ovarian, in the test on SF-268 CNS, in the test with SK-MEL-2 melanoma and in the test with T-47D breast was more than 100 µM throughout.
As to `COC(=O)[C@@H]1[C@H](OC(C)=O)CCC2[C@@]3(C[C@@H](c4ccoc4)O[C@@H]3OC)[C@H](C)CC[C@]21C(=O)OC` (stereo partly specified), the TGI in the test on CAKI-1 renal, in the test with HCT-116 colon, with HCT-15 colon, with HOP-92 NSCLC, in the test on HS 578T breast and with HT29 colon was more than 25 µM each time. Also, the TGI in the test with KM12 colon, in the test on LOX IMVI melanoma, with M14 melanoma, in the test on MDA-MB-231 breast, in the test with OVCAR-3 ovarian and in the test on OVCAR-4 ovarian was more than 25 µM throughout. Also, the TGI in the test on OVCAR-5 ovarian, with OVCAR-8 ovarian, with RXF 393 renal, in the test on SF-268 CNS, in the test on SK-MEL-2 melanoma and with T-47D breast was more than 25 µM throughout.
